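In this assay, cells in 96-well plates receive the compound at five concentrations for 48 hours. Endpoints are linearly interpolated between the surrounding concentrations. TGI is the concentration that stops growth completely.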
Key:
Experiment in all cases: NCI tumour cell line growth inhibition, 48 h
786-0 renal = system: 786-0 renal
A498 renal = system: A498 renal
A549 NSCLC = system: A549 NSCLC
ACHN renal = system: ACHN renal
CAKI-1 renal = system: CAKI-1 renal
CCRF-CEM leukemia = system: CCRF-CEM leukemia
COLO 205 colon = system: COLO 205 colon
DLD-1 colon = system: DLD-1 colon
DMS 273 small cell lung = system: DMS 273 small cell lung
EKVX NSCLC = system: EKVX NSCLC
HCC-2998 colon = system: HCC-2998 colon
HCT-116 colon = system: HCT-116 colon
HCT-15 colon = system: HCT-15 colon
HL-60(TB) leukemia = system: HL-60(TB) leukemia
HOP-18 NSCLC = system: HOP-18 NSCLC
HOP-62 NSCLC = system: HOP-62 NSCLC
HOP-92 NSCLC = system: HOP-92 NSCLC
HT29 colon = system: HT29 colon
IGROV1 ovarian = system: IGROV1 ovarian
K-562 leukemia = system: K-562 leukemia
KM12 colon = system: KM12 colon
LOX IMVI melanoma = system: LOX IMVI melanoma
LXFL 529 NSCLC = system: LXFL 529 NSCLC
M14 melanoma = system: M14 melanoma
M19-MEL melanoma = system: M19-MEL melanoma
MALME-3M melanoma = system: MALME-3M melanoma
MOLT-4 leukemia = system: MOLT-4 leukemia
NCI-H23 lung = system: NCI-H23 lung
NCI-H460 lung = system: NCI-H460 lung
OVCAR-3 ovarian = system: OVCAR-3 ovarian
OVCAR-4 ovarian = system: OVCAR-4 ovarian
OVCAR-5 ovarian = system: OVCAR-5 ovarian
OVCAR-8 ovarian = system: OVCAR-8 ovarian
RPMI-8226 leukemia = system: RPMI-8226 leukemia
RXF 393 renal = system: RXF 393 renal
RXF-631 renal = system: RXF-631 renal
SF-268 CNS = system: SF-268 CNS
SF-295 CNS = system: SF-295 CNS
SF-539 CNS = system: SF-539 CNS
SK-MEL-2 melanoma = system: SK-MEL-2 melanoma
SK-MEL-5 melanoma = system: SK-MEL-5 melanoma
SK-OV-3 ovarian = system: SK-OV-3 ovarian
SN12C renal = system: SN12C renal
SNB-19 CNS = system: SNB-19 CNS
SNB-75 CNS = system: SNB-75 CNS
SNB-78 CNS = system: SNB-78 CNS
SR leukemia = system: SR leukemia
SW-620 colon = system: SW-620 colon
TK-10 renal = system: TK-10 renal
U251 CNS = system: U251 CNS
UACC-257 melanoma = system: UACC-257 melanoma
UACC-62 melanoma = system: UACC-62 melanoma
UO-31 renal = system: UO-31 renal
XF 498 CNS = system: XF 498 CNS
DMS 114 small cell lung = system: DMS 114 small cell lung
MDA-N = system: MDA-N
SK-MEL-28 melanoma = system: SK-MEL-28 melanoma
KM20L2 colon = system: KM20L2 colon
NCI-H226 lung = system: NCI-H226 lung
NCI-H522 lung = system: NCI-H522 lung

## Cn1c(=O)c2c3oc(=O)cc(O)c3c(=O)n3c4ccccc4n(c1=O)c23
786-0 renal
  TGI: > 100 µM
A498 renal
  TGI: > 100 µM
A549 NSCLC
  TGI: > 100 µM
ACHN renal
  TGI: > 100 µM
CAKI-1 renal
  TGI: > 100 µM
CCRF-CEM leukemia
  TGI: > 100 µM
COLO 205 colon
  TGI: 72.6 µM
DLD-1 colon
  TGI: > 100 µM
DMS 273 small cell lung
  TGI: > 100 µM
EKVX NSCLC
  TGI: > 100 µM
HCC-2998 colon
  TGI: > 100 µM
HCT-116 colon
  TGI: > 100 µM
HCT-15 colon
  TGI: > 100 µM
HL-60(TB) leukemia
  TGI: 78.7 µM
HOP-18 NSCLC
  TGI: > 100 µM
HOP-62 NSCLC
  TGI: > 100 µM
HOP-92 NSCLC
  TGI: 95.9 µM
HT29 colon
  TGI: > 100 µM
IGROV1 ovarian
  TGI: > 100 µM
K-562 leukemia
  TGI: 65.8 µM
KM12 colon
  TGI: > 100 µM
LOX IMVI melanoma
  TGI: 82.4 µM
LXFL 529 NSCLC
  TGI: > 100 µM
M14 melanoma
  TGI: > 100 µM
M19-MEL melanoma
  TGI: > 100 µM
MALME-3M melanoma
  TGI: > 100 µM
MOLT-4 leukemia
  TGI: > 100 µM
NCI-H23 lung
  TGI: > 100 µM
NCI-H460 lung
  TGI: > 100 µM
OVCAR-3 ovarian
  TGI: 78.6 µM
OVCAR-4 ovarian
  TGI: > 100 µM
OVCAR-5 ovarian
  TGI: > 100 µM
OVCAR-8 ovarian
  TGI: > 100 µM
RPMI-8226 leukemia
  TGI: 91.5 µM
RXF 393 renal
  TGI: > 100 µM
RXF-631 renal
  TGI: > 100 µM
SF-268 CNS
  TGI: > 100 µM
SF-295 CNS
  TGI: > 100 µM
SF-539 CNS
  TGI: > 100 µM
SK-MEL-2 melanoma
  TGI: 69 µM
SK-MEL-5 melanoma
  TGI: 81 µM
SK-OV-3 ovarian
  TGI: > 100 µM
SN12C renal
  TGI: > 100 µM
SNB-19 CNS
  TGI: > 100 µM
SNB-75 CNS
  TGI: 87.8 µM
SNB-78 CNS
  TGI: > 100 µM
SR leukemia
  TGI: > 100 µM
SW-620 colon
  TGI: > 100 µM
TK-10 renal
  TGI: > 100 µM
U251 CNS
  TGI: > 100 µM
UACC-257 melanoma
  TGI: 82.9 µM
UACC-62 melanoma
  TGI: > 100 µM
UO-31 renal
  TGI: > 100 µM
XF 498 CNS
  TGI: 68 µM

## CCN(CC)c1ccc(C(=C2C=CC(=[N+](CC)CC)C=C2)c2ccc(N(CC)CC)cc2)cc1
ACHN renal
  TGI: 0.348 µM
COLO 205 colon
  TGI: 0.503 µM
DMS 114 small cell lung
  TGI: 0.787 µM
DMS 273 small cell lung
  TGI: 1.15 µM
EKVX NSCLC
  TGI: 1.54 µM
HCT-116 colon
  TGI: 1.31 µM
HOP-62 NSCLC
  TGI: 1.58 µM
IGROV1 ovarian
  TGI: 1.18 µM
KM12 colon
  TGI: 1.18 µM
M19-MEL melanoma
  TGI: 1.31 µM
MALME-3M melanoma
  TGI: 0.588 µM
MDA-N
  TGI: 1.16 µM
MOLT-4 leukemia
  TGI: 1.78 µM
OVCAR-5 ovarian
  TGI: 1.06 µM
RXF 393 renal
  TGI: 1.04 µM
RXF-631 renal
  TGI: 1.18 µM
SF-295 CNS
  TGI: 1.11 µM
SK-MEL-2 melanoma
  TGI: 0.687 µM
SK-MEL-28 melanoma
  TGI: 1.82 µM
SK-MEL-5 melanoma
  TGI: 0.237 µM
SK-OV-3 ovarian
  TGI: 0.624 µM
SNB-19 CNS
  TGI: 1.79 µM
SNB-75 CNS
  TGI: 1.44 µM
SR leukemia
  TGI: 0.582 µM
TK-10 renal
  TGI: 1.45 µM
U251 CNS
  TGI: 1.31 µM
UACC-257 melanoma
  TGI: 1.01 µM
UACC-62 melanoma
  TGI: 1.52 µM
UO-31 renal
  TGI: 0.724 µM
XF 498 CNS
  TGI: 0.0815 µM

## COc1ccc([Se]c2ccc(OC)cc2OC)c(OC)c1
786-0 renal
  TGI: > 100 µM
A498 renal
  TGI: 70.3 µM
A549 NSCLC
  TGI: > 100 µM
ACHN renal
  TGI: > 100 µM
CAKI-1 renal
  TGI: > 100 µM
CCRF-CEM leukemia
  TGI: > 100 µM
COLO 205 colon
  TGI: 27.1 µM
DLD-1 colon
  TGI: > 100 µM
DMS 114 small cell lung
  TGI: 13 µM
DMS 273 small cell lung
  TGI: 17.6 µM
HCT-116 colon
  TGI: 46.5 µM
HL-60(TB) leukemia
  TGI: > 100 µM
HOP-18 NSCLC
  TGI: 86 µM
HOP-92 NSCLC
  TGI: 16.3 µM
HT29 colon
  TGI: 29.7 µM
IGROV1 ovarian
  TGI: 59.9 µM
K-562 leukemia
  TGI: > 100 µM
KM12 colon
  TGI: > 100 µM
KM20L2 colon
  TGI: 31.6 µM
LOX IMVI melanoma
  TGI: > 100 µM
LXFL 529 NSCLC
  TGI: > 100 µM
M14 melanoma
  TGI: > 100 µM
M19-MEL melanoma
  TGI: 87.1 µM
MALME-3M melanoma
  TGI: > 100 µM
MOLT-4 leukemia
  TGI: > 100 µM
NCI-H226 lung
  TGI: 83.3 µM
NCI-H23 lung
  TGI: > 100 µM
NCI-H460 lung
  TGI: > 100 µM
NCI-H522 lung
  TGI: 38.2 µM
OVCAR-3 ovarian
  TGI: > 100 µM
OVCAR-4 ovarian
  TGI: > 100 µM
OVCAR-5 ovarian
  TGI: > 100 µM
OVCAR-8 ovarian
  TGI: > 100 µM
RPMI-8226 leukemia
  TGI: > 100 µM
RXF 393 renal
  TGI: 59.5 µM
RXF-631 renal
  TGI: > 100 µM
SF-268 CNS
  TGI: > 100 µM
SF-295 CNS
  TGI: 33.7 µM
SF-539 CNS
  TGI: > 100 µM
SK-MEL-2 melanoma
  TGI: 92.2 µM
SK-MEL-28 melanoma
  TGI: 77.1 µM
SK-MEL-5 melanoma
  TGI: 93.4 µM
SK-OV-3 ovarian
  TGI: 92.1 µM
SN12C renal
  TGI: > 100 µM
SNB-19 CNS
  TGI: > 100 µM
SNB-75 CNS
  TGI: 36.9 µM
SNB-78 CNS
  TGI: 96.6 µM
SR leukemia
  TGI: 45.7 µM
SW-620 colon
  TGI: > 100 µM
TK-10 renal
  TGI: > 100 µM
U251 CNS
  TGI: > 100 µM
UACC-257 melanoma
  TGI: > 100 µM
UACC-62 melanoma
  TGI: > 100 µM
UO-31 renal
  TGI: 65.8 µM
XF 498 CNS
  TGI: > 100 µM

## CCOC(=O)c1cnc2[nH]c(=O)c3ccccc3n2c1=O
786-0 renal
  TGI: > 100 µM
A549 NSCLC
  TGI: > 100 µM
ACHN renal
  TGI: > 100 µM
CAKI-1 renal
  TGI: > 100 µM
CCRF-CEM leukemia
  TGI: > 100 µM
COLO 205 colon
  TGI: > 100 µM
DLD-1 colon
  TGI: > 100 µM
DMS 273 small cell lung
  TGI: > 100 µM
EKVX NSCLC
  TGI: > 100 µM
HCT-116 colon
  TGI: > 100 µM
HCT-15 colon
  TGI: > 100 µM
HL-60(TB) leukemia
  TGI: > 100 µM
HOP-18 NSCLC
  TGI: > 100 µM
HOP-62 NSCLC
  TGI: > 100 µM
HOP-92 NSCLC
  TGI: > 100 µM
HT29 colon
  TGI: > 100 µM
IGROV1 ovarian
  TGI: > 100 µM
K-562 leukemia
  TGI: > 100 µM
KM12 colon
  TGI: > 100 µM
KM20L2 colon
  TGI: > 100 µM
LOX IMVI melanoma
  TGI: > 100 µM
LXFL 529 NSCLC
  TGI: > 100 µM
M14 melanoma
  TGI: > 100 µM
M19-MEL melanoma
  TGI: > 100 µM
MALME-3M melanoma
  TGI: > 100 µM
MOLT-4 leukemia
  TGI: > 100 µM
NCI-H226 lung
  TGI: > 100 µM
NCI-H23 lung
  TGI: > 100 µM
NCI-H460 lung
  TGI: > 100 µM
NCI-H522 lung
  TGI: > 100 µM
OVCAR-3 ovarian
  TGI: > 100 µM
OVCAR-4 ovarian
  TGI: > 100 µM
OVCAR-5 ovarian
  TGI: > 100 µM
OVCAR-8 ovarian
  TGI: > 100 µM
RPMI-8226 leukemia
  TGI: > 100 µM
RXF 393 renal
  TGI: > 100 µM
RXF-631 renal
  TGI: > 100 µM
SF-268 CNS
  TGI: > 100 µM
SF-295 CNS
  TGI: > 100 µM
SF-539 CNS
  TGI: > 100 µM
SK-MEL-2 melanoma
  TGI: > 100 µM
SK-MEL-28 melanoma
  TGI: > 100 µM
SK-MEL-5 melanoma
  TGI: > 100 µM
SK-OV-3 ovarian
  TGI: > 100 µM
SN12C renal
  TGI: > 100 µM
SNB-19 CNS
  TGI: > 100 µM
SNB-75 CNS
  TGI: > 100 µM
SNB-78 CNS
  TGI: > 100 µM
SR leukemia
  TGI: > 100 µM
SW-620 colon
  TGI: > 100 µM
TK-10 renal
  TGI: > 100 µM
U251 CNS
  TGI: > 100 µM
UACC-257 melanoma
  TGI: > 100 µM
UACC-62 melanoma
  TGI: > 100 µM
UO-31 renal
  TGI: > 100 µM
XF 498 CNS
  TGI: > 100 µM

Source: PubChem BioAssay (NCI)
